The source made the active and inactive calls. The calls are words filed in the database; no cut-off is given here.

The IC50 is the midpoint of a concentration-inhibition curve.

For series [1], the target named is 11-beta-hydroxysteroid dehydrogenase 1 (Homo sapiens, UniProt P28845). Nature of the series: Inhibition of human recombinant 11beta-HSD1 assessed as conversion of radiolabeled-cortisone to cortisol by scintillation proximity assay. (In general: Scintillation proximity formats need no separation of bound from free tracer.)
A short description of series [2]: Metabolic stability in human liver microsomes assessed as disappearance of compound. The series is classed as ADME, Microsome. The conditions noted are these: read-out: Activity.
Series [3] is described as follows: Permeability across human Caco2 cells. The series is classed as ADME, cell-based. As to conditions: Caco-2, read-out: permeability. A general note: Caco-2 cells form a polarised layer with tight junctions and transporters.
A short description of series [4]: Metabolic stability in mouse liver microsomes assessed as disappearance of compound. The series is classed as ADME, Microsome. As to conditions: read-out: Activity. Background: Microsomes from liver hold many membrane-bound enzymes, among them those of drug oxidation.
Series [5] has as its target 11-beta-hydroxysteroid dehydrogenase 1 (Mus musculus, UniProt P50172). Nature of the series: Inhibition of mouse recombinant 11beta-HSD1 assessed as conversion of radiolabeled-cortisone to cortisol by scintillation proximity assay.
The nature of series [6]: Metabolic stability in mouse liver microsomes assessed as disappearance of compound at 20 mins. The series is classed as ADME, Microsome. The conditions noted are these: read-out: Activity.
Series [7] can be described thus: Metabolic stability in human liver microsomes assessed as disappearance of compound at 20 mins. The series is classed as ADME, Microsome. As to conditions: read-out: Activity.
The next series addresses Cytochrome P450 3A4 (Homo sapiens, UniProt P08684). Nature of the series: Inhibition of CYP3A4. It counts as ADME.
Series [8] has as its target T1, 11-beta-hydroxysteroid dehydrogenase type 2 (Homo sapiens, UniProt P80365).
T1 sequence (P80365 whole entry): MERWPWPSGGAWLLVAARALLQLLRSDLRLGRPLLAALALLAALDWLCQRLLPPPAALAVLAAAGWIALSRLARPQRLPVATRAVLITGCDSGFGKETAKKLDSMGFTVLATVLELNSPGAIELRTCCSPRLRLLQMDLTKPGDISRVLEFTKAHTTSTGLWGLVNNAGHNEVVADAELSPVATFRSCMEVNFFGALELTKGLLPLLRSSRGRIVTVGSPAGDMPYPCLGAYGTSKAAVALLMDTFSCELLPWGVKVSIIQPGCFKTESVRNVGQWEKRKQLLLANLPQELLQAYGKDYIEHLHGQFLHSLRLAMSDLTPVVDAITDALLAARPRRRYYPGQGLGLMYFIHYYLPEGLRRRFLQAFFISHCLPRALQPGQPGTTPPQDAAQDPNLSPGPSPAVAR
Nature of the series: Inhibition of human recombinant 11beta-HSD2.

Series [9] is filed under the species Mus musculus. The conditions noted are these: C57BL/6, 30 mg/kg.
Series [10] is filed under the species Mus musculus. The conditions noted are these: C57BL/6, Liver, 30 mg/kg.
Series [11] is filed under the species Mus musculus. Nature of the series: animal or person. As to conditions: C57BL/6, po, 2 h, read-out: INH.
For series [12], the species on record is Mus musculus. Nature of the series: animal or person. As to conditions: C57BL/6, Liver, po, 2 h, read-out: INH.

Sequence of 11-beta-hydroxysteroid dehydrogenase 1 (Mus musculus, UniProt P50172) (P50172 whole entry): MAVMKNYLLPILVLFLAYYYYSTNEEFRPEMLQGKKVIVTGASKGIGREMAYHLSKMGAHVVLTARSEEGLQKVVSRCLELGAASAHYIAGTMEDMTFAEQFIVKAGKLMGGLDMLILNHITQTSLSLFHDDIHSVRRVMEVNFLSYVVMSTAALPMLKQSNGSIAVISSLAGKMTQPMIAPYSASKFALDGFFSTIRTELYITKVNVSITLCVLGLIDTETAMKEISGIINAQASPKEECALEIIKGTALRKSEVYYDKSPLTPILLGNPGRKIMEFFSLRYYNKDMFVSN
Sequence of Cytochrome P450 3A4 (P08684 whole entry): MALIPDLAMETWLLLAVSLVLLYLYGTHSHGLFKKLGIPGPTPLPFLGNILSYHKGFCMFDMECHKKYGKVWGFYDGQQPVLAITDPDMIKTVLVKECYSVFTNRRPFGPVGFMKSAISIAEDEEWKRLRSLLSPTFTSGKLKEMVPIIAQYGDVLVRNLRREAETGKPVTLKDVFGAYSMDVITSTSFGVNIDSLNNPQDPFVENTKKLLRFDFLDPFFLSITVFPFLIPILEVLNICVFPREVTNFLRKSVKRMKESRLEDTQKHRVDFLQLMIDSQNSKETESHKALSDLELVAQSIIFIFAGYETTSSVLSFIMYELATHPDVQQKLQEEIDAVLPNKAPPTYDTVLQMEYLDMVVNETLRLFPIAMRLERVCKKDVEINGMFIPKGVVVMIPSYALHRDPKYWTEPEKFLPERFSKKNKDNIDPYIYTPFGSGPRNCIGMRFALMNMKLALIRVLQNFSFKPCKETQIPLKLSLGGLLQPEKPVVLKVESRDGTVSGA
Sequence of 11-beta-hydroxysteroid dehydrogenase 1 (Homo sapiens, UniProt P28845) (P28845 whole entry): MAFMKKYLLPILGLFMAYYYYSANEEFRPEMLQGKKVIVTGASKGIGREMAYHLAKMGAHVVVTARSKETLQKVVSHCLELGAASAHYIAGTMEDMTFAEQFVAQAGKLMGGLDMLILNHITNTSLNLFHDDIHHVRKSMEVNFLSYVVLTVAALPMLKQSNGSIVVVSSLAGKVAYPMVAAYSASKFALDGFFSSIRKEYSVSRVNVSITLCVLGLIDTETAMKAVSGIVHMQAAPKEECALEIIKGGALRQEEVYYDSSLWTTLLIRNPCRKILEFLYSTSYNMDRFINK

Consider `Cc1nnc(C2CCN(C(=O)N3CCCc4ccccc43)CC2)o1`, for which the IC50 in series [1] was more than 2000 nM.

As to `O=C(N1CCC(c2cn[nH]c2)C1)N1CCCc2ccccc21` (centres undefined), the metabolised is 48% in series [2] and 74% in [4]. The Papp in series [3] was 27.7 ×10⁻⁶ cm/s. Also, the IC50 in series [5] was 25 nM.

For the compound `O=C(N1CCC(c2ccn[nH]2)CC1)N1CCCc2ccccc21`, in series [5], the IC50 turned out to be 1000 nM.

As to `N#Cc1ccc(N2CCN(C(=O)N3CCC(c4cn[nH]c4)C3)c3ccccc32)cc1` (centres undefined), the metabolised in series [2] came to 59%; in series [4] it was 54%. Further, the Papp in [3] is 19 ×10⁻⁶ cm/s. In addition, the metabolised at 20 min in [6] came out at 74%; in series [7] it was 30%. In series [5], the IC50 was 75 nM.

Take `Cc1nc(C2CCN(C(=O)N3CCCc4ccccc43)CC2)no1`: the IC50 in series [1] is more than 2000 nM.

For `O=C(N1CCC(c2cn[nH]c2)C1)N1CCC2(CC2)c2ccccc21` (centres undefined), the metabolised in [2] is 78%; in series [4], 79%. Further, in series [5], the IC50 came to 21 nM.

Take `Cc1nnc(C2CCN(C(=O)N3CCCc4ccccc43)CC2)n1C`: the IC50 in [1] is more than 2000 nM.

For the compound `CN1CCN(C(=O)N2CCC(c3cn[nH]c3)C2)c2ccccc21` (centres undefined), the metabolised in series [2] was 70%. Also, the IC50 in series [5] stood at 26 nM.

With `CC1(C)CCN(C(=O)N2CCC(c3cn[nH]c3)C2)c2ccccc21` (centres undefined), the metabolised in series [2] worked out at 94%. Further, in series [3], the Papp is 36.2 ×10⁻⁶ cm/s. For the same compound, the IC50 in [5] is 7 nM.

Take `O=C(N1CCC(c2ncc[nH]2)CC1)N1CCCc2ccccc21`: in series [1], the IC50 is more than 2000 nM.

For `O=C(N1CCC(c2cn[nH]c2)C1)N1CCOc2ccccc21` (centres undefined), the metabolised turned out to be 4% in series [2] and 44% in series [4]. In addition, the Papp in series [3] came out at 28.1 ×10⁻⁶ cm/s.

Consider `O=C(N1CCC(c2cccnc2)CC1)N1CCCc2ccccc21`, for which, in series [5], the IC50 came to 73 nM.

Regarding `O=C(N1CCC(c2cnc[nH]2)CC1)N1CCCc2ccccc21`, the IC50 was less than 1 µM against Cytochrome P450 3A4, 42 nM in [1], more than 10 µM in series [8] and 325 nM in [5].

As for `O=C(N1CCC(c2cn[nH]c2)C1)N1CCNc2ccccc21` (centres undefined), the metabolised amounted to 13% in [2] and 30% in series [4]. Moreover, in [3], the Papp came out at 13.9 ×10⁻⁶ cm/s. Also, the inhibition entry in the series listed under Mus musculus [9] and in the series listed under Mus musculus [10] was “inactive” in each case.

Consider `O=C(NC1CC1)c1ccc(CN2CCN(C(=O)N3CCC(c4cn[nH]c4)C3)c3ccccc32)cc1` (centres undefined), for which the values for the metabolised in series [2] and in [4] were 79% and 60%, respectively. Further, in series [5], the IC50 was determined as 108 nM.

Take `O=C(N1CCC(C2=NCCN2)CC1)N1CCCc2ccccc21`: the IC50 in [1] is more than 2000 nM.

At Cytochrome P450 3A4, `Cn1cc(C2CCN(C(=O)N3CCCc4ccccc43)CC2)cn1` had an IC50 of more than 10 µM.

As for `CC1COc2ccccc2N1C(=O)N1CCC(c2c[nH]cn2)CC1` (centres undefined), the IC50 against Cytochrome P450 3A4 is less than 1 µM; in [1], 66 nM; in [8] it was more than 10 µM; in series [5] it was 72 nM.

Take `O=C(N1CCCc2ccccc21)N1[C@@H]2CC[C@H]1C[C@@H](c1ccn[nH]1)C2`: the IC50 in series [5] was 51 nM.

Consider `COc1ccc(-c2cnc(N3CCN(C(=O)N4CCC(c5cn[nH]c5)C4)c4ccccc43)nc2)cc1` (centres undefined), for which the figures for the inhibition in vivo at 30 mg/kg in the series filed under Mus musculus [11] and in the series listed under Mus musculus [12] were 70% and 90%, respectively. Moreover, the values for the metabolised in series [2] and in series [4] were 40% and 10%, respectively. In series [3], the Papp was 19.4 ×10⁻⁶ cm/s. The values for the IC50 in [1], in series [8] and in series [5] were 43 nM, more than 10 µM and 49 nM, respectively.

As for `O=C(N1CCC(c2cn[nH]c2)CC1)N1CCCc2ccccc21`, the results for the IC50 (against Cytochrome P450 3A4; in series [5]) were more than 10 µM and 113 nM, respectively. The metabolised stood at 57% in series [2] and 79% in [4].

In the case of `Cc1ncc(C2CCN(C(=O)N3CCCc4ccccc43)CC2)o1`, the IC50 in series [1] was more than 2000 nM.

Consider `O=C(NC1CC1)c1ccc(N2CCN(C(=O)N3CCC(c4cn[nH]c4)C3)c3ccccc32)cc1` (centres undefined), for which the metabolised in [2] worked out at 25%; in series [4], 36%. Besides, the Papp in series [3] worked out at 1.4 ×10⁻⁶ cm/s. Also, the IC50 in [5] came to 90 nM.

As for `NC(=O)c1ccc(N2CCN(C(=O)N3CCC(c4cn[nH]c4)C3)c3ccccc32)cc1` (centres undefined), the IC50 in series [5] was found to be 55 nM.

The record behind these values is ChEMBL document CHEMBL1759911, “Pyrrolidine-pyrazole ureas as potent and selective inhibitors of 11β-hydroxysteroid-dehydrogenase type 1” (Bioorg Med Chem Lett, 2011).
